Results as given in ChEMBL document CHEMBL4364283 (J Med Chem, 2019).
The source made the active and inactive calls. The calls are words filed in the database; no cut-off is given here.

Columns and labels:
Menin [1] = molecular target: T1, Menin (Homo sapiens, UniProt O00255); assay: Inhibition of FAM-probe binding to Menin (unknown origin) after 60 mins by fluorescence polarization competitive binding assay
T1 sequence (O00255 whole entry): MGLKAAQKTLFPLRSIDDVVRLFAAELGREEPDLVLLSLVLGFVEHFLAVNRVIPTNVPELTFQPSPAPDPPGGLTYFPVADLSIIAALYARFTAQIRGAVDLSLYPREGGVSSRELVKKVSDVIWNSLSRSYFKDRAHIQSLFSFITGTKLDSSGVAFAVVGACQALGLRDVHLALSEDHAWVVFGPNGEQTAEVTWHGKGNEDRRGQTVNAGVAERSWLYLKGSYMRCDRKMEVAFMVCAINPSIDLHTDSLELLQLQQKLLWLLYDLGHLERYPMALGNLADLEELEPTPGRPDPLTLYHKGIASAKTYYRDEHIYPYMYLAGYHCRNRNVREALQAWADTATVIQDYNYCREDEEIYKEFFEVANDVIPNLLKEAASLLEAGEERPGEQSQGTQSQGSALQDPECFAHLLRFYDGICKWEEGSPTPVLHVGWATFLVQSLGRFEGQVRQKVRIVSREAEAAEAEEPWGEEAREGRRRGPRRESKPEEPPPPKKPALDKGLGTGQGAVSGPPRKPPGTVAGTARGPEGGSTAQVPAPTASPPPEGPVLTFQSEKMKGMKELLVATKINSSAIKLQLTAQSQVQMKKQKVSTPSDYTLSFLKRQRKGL

MV4-11 [2] = assay: cells; details: Homo sapiens, MV4-11, 96 h
HL-60 = assay: Growth inhibition of human HL60 cells after 4 days by WST-8 assay; format: functional, cell-based; details: HL-60, 96 h
MOLM-13 = assay: Growth inhibition of human MOLM13 cells after 4 days by WST-8 assay; format: functional, cell-based; details: MOLM-13, 96 h
[3] = Solubility of the compound; format: physicochemical
Menin [4] = molecular target: T1, Menin; assay: Binding affinity to human Menin expressed in Escherichia coli Rosetta2 (DE3) cells by isothermal titration calorimetry
[5] = molecular target: T2, Menin/Histone-lysine N-methyltransferase MLL (Homo sapiens) (UniProt O00255+Q03164); details: 30 to 300 nM
T2 sequence (Q03164 1-2718 partner limits assumed, one chain of several): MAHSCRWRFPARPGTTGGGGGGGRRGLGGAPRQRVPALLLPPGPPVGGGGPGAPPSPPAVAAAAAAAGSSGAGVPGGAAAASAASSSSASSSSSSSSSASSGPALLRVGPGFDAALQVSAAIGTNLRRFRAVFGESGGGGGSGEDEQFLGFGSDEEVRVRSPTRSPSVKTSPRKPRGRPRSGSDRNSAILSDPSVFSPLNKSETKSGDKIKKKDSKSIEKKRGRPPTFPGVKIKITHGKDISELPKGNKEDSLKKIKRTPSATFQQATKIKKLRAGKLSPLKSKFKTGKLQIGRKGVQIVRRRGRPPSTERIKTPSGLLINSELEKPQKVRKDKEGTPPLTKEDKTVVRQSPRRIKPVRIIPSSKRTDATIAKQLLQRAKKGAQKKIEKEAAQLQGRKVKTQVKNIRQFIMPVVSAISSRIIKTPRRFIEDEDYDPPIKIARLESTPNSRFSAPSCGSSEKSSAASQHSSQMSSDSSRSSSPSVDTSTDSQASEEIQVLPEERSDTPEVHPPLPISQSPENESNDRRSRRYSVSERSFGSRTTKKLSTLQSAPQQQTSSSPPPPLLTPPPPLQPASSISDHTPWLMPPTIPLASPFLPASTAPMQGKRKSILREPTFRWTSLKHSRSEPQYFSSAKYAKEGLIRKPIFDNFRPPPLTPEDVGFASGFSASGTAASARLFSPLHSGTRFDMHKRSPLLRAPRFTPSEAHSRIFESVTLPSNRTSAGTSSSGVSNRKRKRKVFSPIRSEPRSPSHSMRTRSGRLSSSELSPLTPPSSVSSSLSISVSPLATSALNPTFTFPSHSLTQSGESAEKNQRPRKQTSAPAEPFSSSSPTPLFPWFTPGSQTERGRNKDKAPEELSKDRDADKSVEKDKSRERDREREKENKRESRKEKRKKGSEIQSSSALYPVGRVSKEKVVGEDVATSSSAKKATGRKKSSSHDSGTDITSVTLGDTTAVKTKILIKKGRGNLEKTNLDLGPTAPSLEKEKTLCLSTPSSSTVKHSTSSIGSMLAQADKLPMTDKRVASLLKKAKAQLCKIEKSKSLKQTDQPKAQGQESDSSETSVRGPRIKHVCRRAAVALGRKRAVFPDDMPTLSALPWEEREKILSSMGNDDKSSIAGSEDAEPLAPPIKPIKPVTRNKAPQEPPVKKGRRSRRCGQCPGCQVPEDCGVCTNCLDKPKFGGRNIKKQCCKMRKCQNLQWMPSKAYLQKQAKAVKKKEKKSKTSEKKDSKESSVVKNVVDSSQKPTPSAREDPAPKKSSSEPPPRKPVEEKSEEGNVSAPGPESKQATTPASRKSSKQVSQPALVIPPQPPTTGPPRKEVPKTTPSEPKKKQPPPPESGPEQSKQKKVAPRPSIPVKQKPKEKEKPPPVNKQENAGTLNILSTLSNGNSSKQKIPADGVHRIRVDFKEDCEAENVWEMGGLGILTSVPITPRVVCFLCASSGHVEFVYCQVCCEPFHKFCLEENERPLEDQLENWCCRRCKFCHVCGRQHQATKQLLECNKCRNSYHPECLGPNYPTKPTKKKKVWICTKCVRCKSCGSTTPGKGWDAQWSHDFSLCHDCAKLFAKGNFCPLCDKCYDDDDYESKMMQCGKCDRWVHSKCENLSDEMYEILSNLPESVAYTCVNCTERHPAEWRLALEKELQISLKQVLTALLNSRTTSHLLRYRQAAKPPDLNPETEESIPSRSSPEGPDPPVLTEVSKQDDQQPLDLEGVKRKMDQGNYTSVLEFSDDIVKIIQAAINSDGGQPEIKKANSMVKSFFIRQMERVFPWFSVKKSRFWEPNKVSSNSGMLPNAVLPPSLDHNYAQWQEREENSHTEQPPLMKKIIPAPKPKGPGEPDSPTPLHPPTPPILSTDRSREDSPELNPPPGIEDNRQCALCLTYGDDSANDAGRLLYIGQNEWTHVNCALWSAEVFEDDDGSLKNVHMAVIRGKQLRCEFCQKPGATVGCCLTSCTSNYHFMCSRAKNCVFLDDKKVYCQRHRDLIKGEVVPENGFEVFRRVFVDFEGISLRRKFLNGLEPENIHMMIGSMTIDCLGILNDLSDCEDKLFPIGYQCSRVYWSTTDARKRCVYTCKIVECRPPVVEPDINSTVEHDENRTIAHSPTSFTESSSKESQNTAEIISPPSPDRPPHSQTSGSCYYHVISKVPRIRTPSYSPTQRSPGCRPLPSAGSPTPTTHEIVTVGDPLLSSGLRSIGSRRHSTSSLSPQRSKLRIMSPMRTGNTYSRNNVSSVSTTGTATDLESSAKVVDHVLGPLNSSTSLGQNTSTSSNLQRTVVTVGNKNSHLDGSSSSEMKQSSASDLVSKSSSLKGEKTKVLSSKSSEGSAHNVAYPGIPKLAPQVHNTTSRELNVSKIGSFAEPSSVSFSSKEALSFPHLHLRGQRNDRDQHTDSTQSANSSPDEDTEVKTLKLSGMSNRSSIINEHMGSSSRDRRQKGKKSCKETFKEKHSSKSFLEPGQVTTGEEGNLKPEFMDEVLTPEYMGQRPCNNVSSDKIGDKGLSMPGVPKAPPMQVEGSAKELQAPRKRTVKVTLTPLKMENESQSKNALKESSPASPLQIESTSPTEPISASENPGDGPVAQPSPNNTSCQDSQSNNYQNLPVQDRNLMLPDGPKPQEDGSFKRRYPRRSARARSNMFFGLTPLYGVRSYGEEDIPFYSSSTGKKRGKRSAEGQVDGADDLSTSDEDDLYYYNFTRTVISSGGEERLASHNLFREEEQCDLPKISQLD
T2 sequence (Q03164 2719-3969 partner limits assumed, one chain of several): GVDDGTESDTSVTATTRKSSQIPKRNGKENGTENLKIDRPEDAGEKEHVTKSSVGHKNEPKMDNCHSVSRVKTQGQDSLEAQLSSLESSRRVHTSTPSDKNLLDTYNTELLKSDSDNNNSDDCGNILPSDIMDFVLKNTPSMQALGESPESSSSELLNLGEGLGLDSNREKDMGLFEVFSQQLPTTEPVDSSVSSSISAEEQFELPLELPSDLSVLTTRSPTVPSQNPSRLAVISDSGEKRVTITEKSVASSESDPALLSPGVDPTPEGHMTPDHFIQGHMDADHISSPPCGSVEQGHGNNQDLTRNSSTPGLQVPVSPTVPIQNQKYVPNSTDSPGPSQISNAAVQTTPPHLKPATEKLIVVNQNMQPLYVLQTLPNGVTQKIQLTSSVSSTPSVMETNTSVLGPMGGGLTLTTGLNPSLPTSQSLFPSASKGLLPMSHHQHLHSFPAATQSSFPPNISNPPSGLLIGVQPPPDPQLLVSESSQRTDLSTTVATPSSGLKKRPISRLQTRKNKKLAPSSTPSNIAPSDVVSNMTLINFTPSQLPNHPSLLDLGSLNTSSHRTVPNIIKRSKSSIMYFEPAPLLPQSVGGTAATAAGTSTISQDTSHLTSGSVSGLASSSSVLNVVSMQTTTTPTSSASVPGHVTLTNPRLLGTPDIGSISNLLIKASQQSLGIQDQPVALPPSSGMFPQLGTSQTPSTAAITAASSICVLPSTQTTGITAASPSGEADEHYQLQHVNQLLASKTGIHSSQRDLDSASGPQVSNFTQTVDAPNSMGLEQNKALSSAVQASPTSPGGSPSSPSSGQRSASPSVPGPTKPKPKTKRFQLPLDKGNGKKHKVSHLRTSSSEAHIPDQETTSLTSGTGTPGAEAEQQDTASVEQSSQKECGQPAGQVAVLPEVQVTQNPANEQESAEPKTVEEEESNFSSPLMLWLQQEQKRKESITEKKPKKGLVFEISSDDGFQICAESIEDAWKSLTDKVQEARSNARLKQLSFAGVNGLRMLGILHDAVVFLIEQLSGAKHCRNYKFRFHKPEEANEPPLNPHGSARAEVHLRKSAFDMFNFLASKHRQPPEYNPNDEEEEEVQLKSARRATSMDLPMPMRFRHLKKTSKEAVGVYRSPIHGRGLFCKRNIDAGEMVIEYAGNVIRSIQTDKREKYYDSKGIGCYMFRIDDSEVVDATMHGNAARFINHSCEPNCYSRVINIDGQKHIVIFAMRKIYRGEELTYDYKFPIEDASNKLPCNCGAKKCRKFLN

Menin [6] = molecular target: T1, Menin
Mus musculus [7] = assay: Downregulation of MEIS1 expression in tumors of mouse xenografted with human MV411 cells at 50 mg/kg , ip administered daily for 3 days and measured after 6 to 48 hrs by RT-qPCR analysis; format: functional, organism-based
[8] = molecular target: T2, Menin/Histone-lysine N-methyltransferase MLL (Homo sapiens); details: 100 nM
[9] = molecular target: T2, Menin/Histone-lysine N-methyltransferase MLL (Homo sapiens); details: 100 nM; remark: listed apart in the source
Mus musculus [10] = assay: Downregulation of Hoxa9 expression in tumors of mouse xenografted with human MV411 cells at 50 mg/kg , ip administered daily for 3 days and measured after 6 to 48 hrs by RT-qPCR analysis; format: functional, organism-based
MV4-11 [11] = assay: Induction of differentiation in human MV4-11 cells assessed as increase in CD11b positive cells at 0.03 to 3 uM after 24 hrs by phycoerythrin staining-based flow cytometric analysis; format: functional, cell-based
[12] = molecular target: T2, Menin/Histone-lysine N-methyltransferase MLL (Homo sapiens); details: 30 to 300 nM; remark: listed apart in the source
MV4-11 [13] = assay: Induction of differentiation in human MV4-11 cells assessed as increase in CD11b positive cells after 48 hrs by phycoerythrin staining-based flow cytometric analysis; format: functional, cell-based
Menin [14] = molecular target: Menin (Homo sapiens, UniProt O00255); assay: Inhibition of fluorescent probe binding to Menin (2 to 610 residues containing deletion from 460-519) (unknown origin) after 60 mins by fluorescence polarization competitive binding assay

Compound	Ki (Menin [1]) [nM]	IC50 (MV4-11 [2]) [nM]	IC50 (Menin [1]) [nM]	further results
O=S(=O)(c1ccc(N2CC(CN3CCC(C4(C5CCCC5)NCCc5ccccc54)CC3)C2)cc1)C1CC1 (configuration not stated)	7	1200		
N#Cc1ccc(OCCCN2CCC(C3(C4CCCC4)NCCc4ccccc43)CC2)cc1 (configuration not stated)		1400		
CC(=O)O[C@H]1CCC[C@@H]1[C@](C#N)(c1ccccc1)C1CCN(CC2CN(c3ccc(C#N)cc3)C2)CC1 (mixture of isomers)	12	1700	40	
CC(=O)O[C@@H]1CCC[C@H]1[C@](C#N)(c1ccccc1)C1CCN(CC2CN(c3ccc(C#N)cc3)C2)CC1 (relative stereo)		14300		
O=S(=O)(c1ccncc1)c1ccc(N2CC(CN3CCC(C4(C5CCCC5)CN(CC5COC5)Cc5ccccc54)CC3)C2)cc1 (configuration not stated)	7	1570		
O=S(=O)(c1ccc(N2CC(CN3CCC(C4(C5CCCC5)NCCc5ccccc54)CC3)C2)cc1)C1CCC1 (configuration not stated)	11	1700		
O=S(=O)(c1ccncc1)c1ccc(N2CC(CN3CCC(C4(C5CCCC5)CN(Cc5ccncc5)Cc5ccccc54)CC3)C2)cc1 (configuration not stated)	361	1330		
O=S(=O)(c1ccncc1)c1ccc(N2CC(CN3CCC(C4(C5CCCC5)CN(CCN5CCOCC5)Cc5ccccc54)CC3)C2)cc1 (configuration not stated)	2.7	1550		
O=S(=O)(c1ccncc1)c1ccc(N2CC(CN3CCC(C4(C5CCCC5)CN(C5CCC5)Cc5ccccc54)CC3)C2)cc1 (configuration not stated)	2	900		
CC(=O)N[C@H]1CCC[C@@H]1[C@](C#N)(c1ccccc1)C1CCN(CC2CN(c3ccc(C#N)cc3)C2)CC1 (racemic)	32	3900	102	
CCCC(=O)O[C@H]1CCC[C@@H]1[C@](C#N)(c1ccccc1)C1CCN(CC2CN(c3ccc(C#N)cc3)C2)CC1 (mixture of isomers)	350	10700	1100	
CN1Cc2ccccc2C(C2CCCC2)(C2CCN(CC3CN(c4ccc(S(=O)(=O)c5ccncc5)cc4)C3)CC2)C1 (configuration not stated)			11	IC50 (HL-60): 2500 nM; IC50 (MOLM-13): 4.3 µM
O=S(=O)(c1ccccc1)c1ccc(N2CC(CN3CCC(C4(C5CCCC5)NCCc5ccccc54)CC3)C2)cc1 (configuration not stated)	5.6	500	20	
O=S(=O)(c1ccncc1)c1ccc(N2CC(CN3CCC(C4(C5CCCC5)NCCc5ccccc54)CC3)C2)cc1 (configuration not stated)	4.6	1300	17	solubility [3]: Soluble
N#Cc1cc2cc(CN3CCC(Nc4ncnc5sc(CC(F)(F)F)cc45)CC3)c(O)cc2n1Cc1cn[nH]c1				Kd (Menin [4]): 10 nM
CNC(=O)O[C@H]1CCC[C@@H]1[C@](C#N)(c1ccccc1)C1CCN(CC2CN(c3ccc(C#N)cc3)C2)CC1 (mixture of isomers)	2.7	300	11	
CCO[C@H]1CCC[C@@H]1[C@](C#N)(c1ccccc1)C1CCN(CC2CN(c3ccc(C#N)cc3)C2)CC1 (racemic)	1700	4300	5400	
CS(=O)(=O)c1ccc(N2CC(CN3CCC(C4(C5CCCC5)NCCc5ccccc54)CC3)C2)cc1 (configuration not stated)	45	4430	143	
N#Cc1ccc(N2CCC(CN3CCC(C4(C5CCCC5)NCCc5ccccc54)CC3)C2)cc1 (configuration not stated)	27	2400	88	

Compound	Ki (Menin [1]) [nM]	IC50 (MV4-11 [2]) [nM]	IC50 (Menin [1]) [nM]	further results
CC(C)N1Cc2ccccc2C(C2CCCC2)(C2CCN(CC3CN(c4ccc(S(=O)(=O)c5ccncc5)cc4)C3)CC2)C1 (configuration not stated)	1.4	910		
CCC(=O)O[C@H]1CCC[C@@H]1[C@](C#N)(c1ccccc1)C1CCN(CC2CN(c3ccc(C#N)cc3)C2)CC1 (mixture of isomers)	9.7	2200	33	
CCS(=O)(=O)c1ccc(N2CC(CN3CCC(C4(C5CCCC5)NCCc5ccccc54)CC3)C2)cc1 (configuration not stated)	10	2100	34	
O=S(=O)(c1ccc(N2CC(CN3CCC(C4(C5CCCC5)NCCc5ccccc54)CC3)C2)cc1)C1CCCC1 (configuration not stated)	4.6	900	17	
CC(C)S(=O)(=O)c1ccc(N2CC(CN3CCC(C4(C5CCCC5)NCCc5ccccc54)CC3)C2)cc1 (configuration not stated)	21	1100		
N#Cc1ccc(N2CCC(N3CCC(C4(C5CCCC5)NCCc5ccccc54)CC3)CC2)cc1 (configuration not stated)	207	6330	650	
N#Cc1ccc(OCCCCN2CCC(C3(C4CCCC4)NCCc4ccccc43)CC2)cc1 (configuration not stated)	1300	500	5000	
O=S(=O)(c1ccc(N2CC(CN3CCC(C4(C5CCCC5)NCCc5ccccc54)CC3)C2)cc1)C1CCCCC1 (configuration not stated)	2.4	1100	10	
N#Cc1ccc(N2CC(CN3CCC(C4(C5CCCC5)NCCc5ccccc54)CC3)C2)cc1 (configuration not stated)	11	1300		
CNC(=O)O[C@H]1CCC[C@@H]1[C@]1(C2CCN(CC3CN(c4ccc(S(=O)(=O)c5ccncc5)cc4)C3)CC2)CN(C)Cc2ccccc21 (mixture of isomers)	< 1		5	inhibition [5]: Active; Kd (Menin [6]): 1.4 nM; Activity (Mus musculus [7]): Active; inhibition [8]: Active; inhibition [9]: Active; Activity (Mus musculus [10]): Active; Activity (MV4-11 [11]): Active; inhibition [12]: Active; Activity (MV4-11 [13]): Dose-dependent effect
N#Cc1ccc(N2CCCC(CN3CCC(C4(C5CCCC5)NCCc5ccccc54)CC3)C2)cc1 (configuration not stated)	2130		6600	
Cc1c(CN2CCC(Nc3ncnc4sc(CC(F)(F)F)cc34)CC2)ccc2c1cc(C#N)n2Cc1cn[nH]c1				Kd (Menin [4]): 10 nM
O=S(=O)(c1ccncc1)c1ccc(N2CC(CN3CCC(C4(C5CCCC5)CNCc5ccccc54)CC3)C2)cc1 (configuration not stated)	1.7	980		
COC(=O)N[C@H]1CCC[C@@H]1[C@](C#N)(c1cccc(F)c1)C1CCN(CC2CN(c3ccc(S(=O)(=O)C4CN(C(=O)/C=C/CN(C)C)C4)cc3)C2)CC1				IC50 (Menin [14]): 3 nM
N#Cc1ccc(N2CC(CN3CCC(C(C#N)(c4ccccc4)C4CCCC4)CC3)C2)cc1 (racemic)	960	16900	3000	
O=S(=O)(c1ccncc1)c1ccc(N2CC(CN3CCC(C4(C5CCCC5)CN(CC5CC5)Cc5ccccc54)CC3)C2)cc1 (configuration not stated)	1.4	1370		
N#Cc1ccc(OCCN2CCC(C3(C4CCCC4)NCCc4ccccc43)CC2)cc1 (configuration not stated)	5500	1800	21200	
CCN1Cc2ccccc2C(C2CCCC2)(C2CCN(CC3CN(c4ccc(S(=O)(=O)c5ccncc5)cc4)C3)CC2)C1 (configuration not stated)	1	840		
